Experimental data taken from PMC7466159, “Anti-Metastasis Fascin Inhibitors Decrease the Growth of Specific Subtypes of Cancers” (Cancers, 2020).

Experiments:
[1] = tested on: MDA-MB-468 triple-negative breast cancer cells; experiment: Cell growth assay, MDA-MB-468; type: cell-based; details: MDA-MB-468 cells in culture, 10% serum
[2] = tested on: BT-20 triple-negative breast cancer cells; experiment: Cell growth assay, BT-20; type: cell-based; details: BT-20 cells in culture, 10% serum
[3] = tested on: HCC38 triple-negative breast cancer cells; experiment: Cell growth assay, HCC38; type: cell-based; details: HCC38 cells in culture, 10% serum
MDA-MB-468 tumor cells = experiment: MDA-MB-468 breast cancer model in NSG mice (tumor growth, overall survival); type: in vivo; details: treatment from Day 14, compared with the control group
Experimental: MDA-MB-468 cells and HCC38 cells grew in the presence of EGF with or without NP-G2-044. […] Finally, we used the animal model to investigate whether the primary tumor growth of MDA-MB-468 cells was sensitive to fascin inhibitors. MDA-MB-468 tumor cells were implanted into the mammary gland of NSG mice, and these mice were randomly divided into four groups. One group of mice was used as control (Figure 6I). The second group of mice was treated with the fascin inhibitor NP-G2-044 (Figure 6I). The third group was treated with the EGFR inhibitor gefitnib (Figure 6I), and the fourth group was treated with the combination of NP-G2-044 + gefitinib (Figure 6I). […] We dissected the primary tumor tissues 55 days after the tumor implantation from some mice. […] Furthermore, the overall survival of the mice was analyzed (Figure 6K).
For the breast cancer model, MDA-MB-468 cells (5 × 10^6) suspended in PBS-matrigel (v/v, 1:1) were injected subcutaneously into the abdominal mammary gland area of female NSG mice on Day 0 as previously described. Starting on Day 14, NP-G2-044 was given once a day for 5 days every week by gavage at 300 mg kg^−1 per mouse until their death. Starting on Day 14, gefitinib was given twice weekly by gavage at 150 mg kg^−1 per mouse until their death. The control solvent was given once a day for 5 days every week by gavage according to their body weight until their death. […] The primary tumor volume was calculated as length × width^2 ×π/6.

With `COc1cc2ncnc(Nc3ccc(F)c(Cl)c3)c2cc1OCCCN1CCOCC1` [gefitinib, reference compound] the growth sensitivity [1] was “sensitive”, the growth sensitivity [2] was “sensitive” and the growth sensitivity [3] was “sensitive”. For the same compound, the “growth of primary tumors” value (MDA-MB-468 tumor cells) was “reduced the growth of primary tumors to the same degree” and the “increase of median overall survival” value (MDA-MB-468 tumor cells) was ~ 50%.
